Measurements as given in US20240277890A1, “ANTIMICROBIAL ARTICLES COMPRISING POLYURETHANE” (Amicoat AS, priority 2021, published 2024).
Converted amounts (≈) assume the structure as drawn.

Tests used:
[1] = system: Salmonella sp - antibiotic-susceptible clinical isolate; assay: MIC microbroth dilution (CLSI); type: cell-based
[2] = system: Candida albicans ATCC24433 - reference strain
[3] = system: Candida tropicalis ATCC750 - reference strain
[4] = system: Candida parapsilosis ATCC90018 - reference strain
[5] = system: Cryptococcus neoformans - G.R. Micro collection
[6] = system: Escherichia coli ATCC25922 - antibiotic-susceptible type strain; settings: ATCC25922
[7] = system: Escherichia coli ATCC32518 - β-lactamase positive type strain
[8] = system: Escherichia coli - multi-drug resistant clinical isolate
[9] = system: Klebsiella aerogenes NCTC11228 - antibiotic-susceptible type strain
[10] = system: Enterobacter sp - antibiotic-susceptible clinical isolate
[11] = system: Pseudomonas aeruginosa ATCC27853 - antibiotic-susceptible type strain; settings: ATCC27853
[12] = system: Stenotrophomonas maltophilia - antibiotic-susceptible clinical isolate
[13] = system: Morganella morganii - multi-drug resistant clinical isolate
[14] = system: Haemophilus influenzae - β-lactamase positive clinical isolate
[15] = system: Staphylococcus aureus ATCC 29213 - antibiotic-susceptible control strain; settings: ATCC 29213
[16] = system: Staphylococcus aureus - methicillin-resistant clinical isolate
[17] = system: Staphylococcus aureus - multi-drug-resistant clinical isolate
[18] = system: Staphylococcus epidermidis antibiotic susceptible clinical isolate
[19] = system: Staphylococcus haemolyticus - antibiotic susceptible clinical isolate
[20] = system: Enterococcus faecalis - ATCC 29212 antibiotic-susceptible control strain; settings: ATCC 29212
[21] = system: Enterococcus faecalis vancomycin-susceptible clinical isolate
[22] = system: Enterococcus faecalis vancomycin-resistant (VanA) clinical isolate
[23] = system: Enterococcus faecalis vancomycin-resistant (VanB) clinical isolate
[24] = system: Enterococcus faecium vancomycin-susceptible clinical isolate
[25] = system: Enterococcus faecium vancomycin-resistant (VanB) clinical isolate
[26] = system: Streptococcus pneumoniae - penicillin-susceptible clinical isolate
[27] = system: Streptococcus pyogenes - Macrolide (M-type) resistance clinical isolate
[28] = system: Corynebacterium jeikeium - antibiotic-susceptible clinical isolate
[29] = system: Corynebacterium jeikeium - multi-drug resistant clinical isolate
[30] = system: Listeria monocytogenes - antibiotic-susceptible clinical isolate
[31] = system: EMRSA3 Staphylococcus aureus (MRSA) - SSCmec type 1; settings: EMRSA3 - SSCmec type 1
[32] = system: EMRSA16 Staphylococcus aureus (MRSA) - SSCmec type 2; settings: EMRSA16 - SSCmec type 2
[33] = system: EMRSA1 Staphylococcus aureus (MRSA) - SSCmec type 3; settings: EMRSA1 - SSCmec type 3
[34] = system: Streptococcus agalactiae - macrolide-resistant clinical isolate
[35] = system: Group C Streptococcus - antibiotic-susceptible clinical isolate
[36] = system: Streptococcus bovis - macrolide-resistant clinical isolate

Q: For CCCCCCNC(=O)[C@H](CCCNC(=N)N)NC(=O)[C@H](Cc1c(C(C)(C)C)[nH]c2c(C(C)(C)C)cc(C(C)(C)C)cc12)NC(=O)[C@@H](N)CCCNC(=N)N [Compound 8], which MIC [1] is on record?
A: 8 µg/mL (≈ 10.4 µM)

Q: And the MIC [2]?
A: 8 µg/mL (≈ 10.4 µM)

Q: And the MIC [3]?
A: 4 µg/mL (≈ 5.21 µM)

Q: What about the MIC [4] of the same compound?
A: 8 µg/mL (≈ 10.4 µM)

Q: What about the MIC [5] of the same compound?
A: 2 µg/mL (≈ 2.6 µM)

Q: What about the MIC [6] of the same compound?
A: 4 µg/mL (≈ 5.21 µM)

Q: And the MIC [7]?
A: 8 µg/mL (≈ 10.4 µM)

Q: What about the MIC [8] of the same compound?
A: 8 µg/mL (≈ 10.4 µM)

Q: What about the MIC [9] of the same compound?
A: 8 µg/mL (≈ 10.4 µM)

Q: What about the MIC [10] of the same compound?
A: 8 µg/mL (≈ 10.4 µM)

Q: And the MIC [11]?
A: 8 µg/mL (≈ 10.4 µM)

Q: What about the MIC [12] of the same compound?
A: 4 µg/mL (≈ 5.21 µM)

Q: And the MIC [13]?
A: 8 µg/mL (≈ 10.4 µM)

Q: And the MIC [14]?
A: 4 µg/mL (≈ 5.21 µM)

Q: What about the MIC [15] of the same compound?
A: 4 µg/mL (≈ 5.21 µM)

Q: What about the MIC [16] of the same compound?
A: 4 µg/mL (≈ 5.21 µM)

Q: What about the MIC [17] of the same compound?
A: 4 µg/mL (≈ 5.21 µM)

Q: And the MIC [18]?
A: 8 µg/mL (≈ 10.4 µM)

Q: What about the MIC [19] of the same compound?
A: 4 µg/mL (≈ 5.21 µM)

Q: And the MIC [20]?
A: 4 µg/mL (≈ 5.21 µM)

Q: And the MIC [21]?
A: 4 µg/mL (≈ 5.21 µM)

Q: And the MIC [22]?
A: 4 µg/mL (≈ 5.21 µM)

Q: And the MIC [23]?
A: 8 µg/mL (≈ 10.4 µM)

Q: And the MIC [24]?
A: 4 µg/mL (≈ 5.21 µM)

Q: What about the MIC [25] of the same compound?
A: 4 µg/mL (≈ 5.21 µM)

Q: What about the MIC [26] of the same compound?
A: 8 µg/mL (≈ 10.4 µM)

Q: What about the MIC [27] of the same compound?
A: 8 µg/mL (≈ 10.4 µM)

Q: What about the MIC [28] of the same compound?
A: 4 µg/mL (≈ 5.21 µM)

Q: What about the MIC [29] of the same compound?
A: 2 µg/mL (≈ 2.6 µM)

Q: And the MIC [30]?
A: 8 µg/mL (≈ 10.4 µM)

Q: And the MIC [31]?
A: 4 µg/mL (≈ 5.21 µM)

Q: What about the MIC [32] of the same compound?
A: 4 µg/mL (≈ 5.21 µM)

Q: What about the MIC [33] of the same compound?
A: 4 µg/mL (≈ 5.21 µM)

Q: What about the MIC [34] of the same compound?
A: 8 µg/mL (≈ 10.4 µM)

Q: What about the MIC [35] of the same compound?
A: 8 µg/mL (≈ 10.4 µM)

Q: And the MIC [36]?
A: 2 µg/mL (≈ 2.6 µM)

Q: What about the “E. coli (MIC)” value (E. coli) of the same compound?
A: 5 µg/mL
